Test results: patent US11708348B2, “Protease inhibitors for treatment of coronavirus infections” (The Scripps Research Institute, priority 2021, dated 2023)

Tested on: SARS-CoV-2 strain USA-WA1/2020
Assay: microbe, parasite or virus in culture
Format: cell-based
Conditions: Severe acute respiratory syndrome coronavirus 2, HeLa-ACE2, 24 h, HeLa-ACE2 cells, SARS-CoV-2 infection, 24 h; read-out: EC50, uM (Hela)

Row | SMILES | EC50 [µM]
1 | CC(F)(F)C(F)(F)CC(=O)N1CC2(CC2)C[C@H]1C(=O)N[C@@H](C[C@@H]1CCNC1=O)C(=O)COC(F)(F)F [Compound 713, (S)-N-((S)-3-oxo-1-((S)-2-oxopyrrolidin-3-yl)-4-(trifluoromethoxy)butan-2-yl)-5-(3,3,4,4-tetrafluoropentanoyl)-5-azaspiro[2.4]heptane-6-carboxamide] | 0.05 to 0.2
2 | CC(C)C(F)(F)C(=O)N1CC2(CC2)C[C@H]1C(=O)N[C@@H](C[C@@H]1CCNC1=O)C(=O)COC(F)(F)F [Compound 714, (S)-5-(2,2-difluoro-3-methylbutanoyl)-N-((S)-3-oxo-1-((S)-2-oxopyrrolidin-3-yl)-4-(trifluoromethoxy)butan-2-yl)-5-azaspiro[2.4]heptane-6-carboxamide] | < 0.05
3 | CC1(C)[C@@H]2[C@@H](C(=O)N[C@H](C[C@@H]3CCNC3=O)C(=O)COC(F)(F)F)N(C(=O)[C@H](O)c3ccccc3)C[C@@H]21 [Compound 715, (1R,2S,5S)-3-((R)-2-hydroxy-2-phenylacetyl)-6,6-dimethyl-N-((R)-3-oxo-1-((S)-2-oxopyrrolidin-3-yl)-4-(trifluoromethoxy)butan-2-yl)-3-azabicyclo[3.1.0]hexane-2-carboxamide] | 0.05 to 0.2
4 | CC[C@@H](OC(F)(F)F)C(=O)N1CC2(CC2)C[C@H]1C(=O)N[C@@H](C[C@@H]1CCNC1=O)C(=O)COC(F)(F)F [Compound 716, (S)-N-((S)-3-oxo-1-((S)-2-oxopyrrolidin-3-yl)-4-(trifluoromethoxy)butan-2-yl)-5-((R)-2-(trifluoromethoxy)butanoyl)-5-azaspiro[2.4]heptane-6-carboxamide] | 0.05 to 0.2
5 | CC(C)(O)CC(=O)N1CC2(CC2)C[C@H]1C(=O)N[C@@H](C[C@@H]1CCNC1=O)C(=O)COC(F)(F)F [Compound 717, (S)-5-(3-hydroxy-3-methylbutanoyl)-N-((S)-3-oxo-1-((S)-2-oxopyrrolidin-3-yl)-4-(trifluoromethoxy)butan-2-yl)-5-azaspiro[2.4]heptane-6-carboxamide] | 0.05 to 0.2
6 | O=C1NCC[C@H]1C[C@H](NC(=O)[C@@H]1CC2(CC2)CN1C(=O)[C@@H]1C[C@H]1C(F)(F)F)C(=O)COC(F)(F)F [Compound 718, (S)-N-((S)-3-oxo-1-((S)-2-oxopyrrolidin-3-yl)-4-(trifluoromethoxy)butan-2-yl)-5-((1R,2R)-2-(trifluoromethyl)cyclopropane-1-carbonyl)-5-azaspiro[2.4]heptane-6-carboxamide] | < 0.05
7 | CC(C)C[C@H](O)C(=O)N[C@@H](C[C@@H]1CCNC1=O)C(=O)COC(F)(F)F [Compound 719, (S)-2-hydroxy-4-methyl-N-((S)-3-oxo-1-((S)-2-oxopyrrolidin-3-yl)-4-(trifluoromethoxy)butan-2-yl)pentanamide] | 0.5 to 1
8 | O=C1NCC[C@H]1C[C@H](NC(=O)[C@@H]1CC2(CC2)CN1C(=O)C1CCC(F)(F)C1)C(=O)COC(F)(F)F (stereo partly drawn) [Compound 720, (6S)-5-(3,3-difluorocyclopentane-1-carbonyl)-N-((S)-3-oxo-1-((S)-2-oxopyrrolidin-3-yl)-4-(trifluoromethoxy)butan-2-yl)-5-azaspiro[2.4]heptane-6-carboxamide] | < 0.05
9 | O=C1NCC[C@H]1C[C@H](NC(=O)[C@@H]1CC2(CC2)CN1C(=O)C1CC(F)(F)C1)C(=O)COC(F)(F)F [Compound 721, (S)-5-(3,3-difluorocyclobutane-1-carbonyl)-N-((S)-3-oxo-1-((S)-2-oxopyrrolidin-3-yl)-4-(trifluoromethoxy)butan-2-yl)-5-azaspiro[2.4]heptane-6-carboxamide] | 0.05 to 0.2
10 | C[C@@](O)(C(=O)N1CC2(CC2)C[C@H]1C(=O)N[C@@H](C[C@@H]1CCNC1=O)C(=O)COC(F)(F)F)C(F)(F)F [Compound 722, (S)-N-((S)-3-oxo-1-((S)-2-oxopyrrolidin-3-yl)-4-(trifluoromethoxy)butan-2-yl)-5-((R)-3,3,3-trifluoro-2-hydroxy-2-methylpropanoyl)-5-azaspiro[2.4]heptane-6-carboxamide] | 0.05 to 0.2
11 | O=C1NCC[C@H]1C[C@H](NC(=O)[C@@H]1CC2(CC2)CN1C(=O)C1CCCC1)C(=O)COC(F)(F)F [Compound 723, (S)-5-(cyclopentanecarbonyl)-N-((S)-3-oxo-1-((S)-2-oxopyrrolidin-3-yl)-4-(trifluoromethoxy)butan-2-yl)-5-azaspiro[2.4]heptane-6-carboxamide] | 0.05 to 0.2
12 | CC(=O)N1C[C@H](C(F)(F)F)C[C@H]1C(=O)N[C@@H](C[C@@H]1CCNC1=O)C(=O)COC(F)(F)F [Compound 724, (2S,4R)-1-acetyl-N-((S)-3-oxo-1-((S)-2-oxopyrrolidin-3-yl)-4-(trifluoromethoxy)butan-2-yl)-4-(trifluoromethyl)pyrrolidine-2-carboxamide] | 0.05 to 0.2
13 | CC(C)[C@H](O)[C@@H](O)C(=O)N1CC2(CC2)C[C@H]1C(=O)N[C@@H](C[C@@H]1CCNC1=O)C(=O)COC(F)(F)F [Compound 726, (S)-5-((2R,3S)-2,3-dihydroxy-4-methylpentanoyl)-N-((S)-3-oxo-1-((S)-2-oxopyrrolidin-3-yl)-4-(trifluoromethoxy)butan-2-yl)-5-azaspiro[2.4]heptane-6-carboxamide] | 0.2 to 0.5
14 | [2H]C([2H])([2H])C([2H])([2H])C([2H])([2H])C([2H])([2H])C(=O)N1CC2(CC2)C[C@H]1C(=O)N[C@@H](C[C@@H]1CCNC1=O)C(=O)COC(F)(F)F [Compound 732, (S)-N-((S)-3-oxo-1-((S)-2-oxopyrrolidin-3-yl)-4-(trifluoromethoxy)butan-2-yl)-5-(pentanoyl-d9)-5-azaspiro[2.4]heptane-6-carboxamide] | < 0.05
15 | [2H]C([2H])([2H])C([2H])([2H])C([2H])([2H])C([2H])([2H])C([2H])([2H])C(=O)N1CC2(CC2)C[C@H]1C(=O)N[C@@H](C[C@@H]1CCNC1=O)C(=O)COC(F)(F)F [Compound 733, (S)-5-(hexanoyl-d 11)-N-((S)-3-oxo-1-((S)-2-oxopyrrolidin-3-yl)-4-(trifluoromethoxy)butan-2-yl)-5-azaspiro[2.4]heptane-6-carboxamide] | < 0.05
16 | [2H]C([2H])([2H])C([2H])(C([2H])([2H])[2H])C([2H])([2H])C([2H])([2H])C(=O)N1CC2(CC2)C[C@H]1C(=O)N[C@@H](C[C@@H]1CCNC1=O)C(=O)COC(F)(F)F [Compound 734, (S)-5-(4-(methyl-d3)pentanoyl-2,2,3,3,4,5,5,5-d8)-N-((S)-3-oxo-1-((S)-2-oxopyrrolidin-3-yl)-4-(trifluoromethoxy)butan-2-yl)-5-azaspiro[2.4]heptane-6-carboxamide] | < 0.05
17 | CC(C)(F)C(=O)N1CC2(CC2)C[C@H]1C(=O)N[C@@H](C[C@@H]1CCNC1=O)C(=O)COC(F)(F)F [Compound 735, (S)-5-(2-fluoro-2-methylpropanoyl)-N-((S)-3-oxo-1-((S)-2-oxopyrrolidin-3-yl)-4-(trifluoromethoxy)butan-2-yl)-5-azaspiro[2.4]heptane-6-carboxamide] | < 0.05
18 | [2H]C([2H])([2H])C([2H])([2H])C([2H])([2H])C(=O)N1CC2(CC2)C[C@H]1C(=O)N[C@@H](C[C@@H]1CCNC1=O)C(=O)COC(F)(F)F [Compound 736, (S)-5-(butanoyl-d7)-N-((S)-3-oxo-1-((S)-2-oxopyrrolidin-3-yl)-4-(trifluoromethoxy)butan-2-yl)-5-azaspiro[2.4]heptane-6-carboxamide] | < 0.05
19 | [2H]C([2H])([2H])C([2H])(C([2H])([2H])[2H])C([2H])([2H])C(=O)N1CC2(CC2)C[C@H]1C(=O)N[C@@H](C[C@@H]1CCNC1=O)C(=O)COC(F)(F)F [Compound 737, (S)-5-(3-(methyl-d3)butanoyl-2,2,3,4,4,4-d6)-N-((S)-3-oxo-1-((S)-2-oxopyrrolidin-3-yl)-4-(trifluoromethoxy)butan-2-yl)-5-azaspiro[2.4]heptane-6-carboxamide] | < 0.05
20 | [2H]C(C)(C)C(=O)N1CC2(CC2)C[C@H]1C(=O)N[C@@H](C[C@@H]1CCNC1=O)C(=O)COC(F)(F)F [Compound 738, (S)-5-(2-methylpropanoyl-2-d)-N-((S)-3-oxo-1-((S)-2-oxopyrrolidin-3-yl)-4-(trifluoromethoxy)butan-2-yl)-5-azaspiro[2.4]heptane-6-carboxamide] | 0.05 to 0.2
21 | [2H]C([2H])([2H])C(C(=O)N1CC2(CC2)C[C@H]1C(=O)N[C@@H](C[C@@H]1CCNC1=O)C(=O)COC(F)(F)F)C([2H])([2H])[2H] [Compound 739, (S)-5-(2-(methyl-d3)propanoyl-3,3,3-d3)-N-((S)-3-oxo-1-((S)-2-oxopyrrolidin-3-yl)-4-(trifluoromethoxy)butan-2-yl)-5-azaspiro[2.4]heptane-6-carboxamide] | 0.05 to 0.2
22 | [2H]C([2H])(CCCC)C(=O)N1CC2(CC2)C[C@H]1C(=O)N[C@@H](C[C@@H]1CCNC1=O)C(=O)COC(F)(F)F [Compound 740, (S)-5-(hexanoyl-2,2-d2)-N-((S)-3-oxo-1-((S)-2-oxopyrrolidin-3-yl)-4-(trifluoromethoxy)butan-2-yl)-5-azaspiro[2.4]heptane-6-carboxamide] | < 0.05
23 | COc1cccc([C@@H](O)C(=O)N2C[C@H]3[C@@H]([C@H]2C(=O)N[C@@H](C[C@@H]2CCNC2=O)C(=O)COC(F)(F)F)C3(C)C)c1F [Compound 741, (1R,2S,5S)-3-((R)-2-(2-fluoro-3-methoxyphenyl)-2-hydroxyacetyl)-6,6-dimethyl-N-((S)-3-oxo-1-((S)-2-oxopyrrolidin-3-yl)-4-(trifluoromethoxy)butan-2-yl)-3-azabicyclo[3.1.0]hexane-2-carboxamide] | < 0.05
24 | CC(C)(C)C[C@H](NC(=O)C(=O)Nc1cccc(C(F)(F)F)n1)C(=O)N[C@@H](C[C@@H]1CCCNC1=O)C(=O)CO [Compound 742, N1-((S)-1-(((S)-4-hydroxy-3-oxo-1-((S)-2-oxopiperidin-3-yl)butan-2-yl)amino)-4,4-dimethyl-1-oxopentan-2-yl)-N2-(6-(trifluoromethyl)pyridin-2-yl)oxalamide] | 0.2 to 0.5
